From ChEMBL document CHEMBL5226300, “Synthetic Approaches to the New Drugs Approved during 2019” (J Med Chem, 2021)

How the values were obtained:
[1] = molecular target: Voltage-dependent calcium channel subunit alpha-2/delta-1 (Homo sapiens) (UniProt P54289); experiment: Binding affinity to human alpha2delta1 Voltage-dependent calcium channel assessed as dissociation half life
[2] = molecular target: Voltage-dependent calcium channel subunit alpha-2/delta-2 (Homo sapiens) (UniProt Q9NY47)
Description: Binding affinity to human alpha2delta2 Voltage-dependent calcium channel assessed as dissociation half life

[3] = molecular target: T1, Sodium/glucose cotransporter 2 (Homo sapiens, UniProt P31639); experiment: Inhibition of SGLT2 (unknown origin)
T1 sequence (P31639 whole entry): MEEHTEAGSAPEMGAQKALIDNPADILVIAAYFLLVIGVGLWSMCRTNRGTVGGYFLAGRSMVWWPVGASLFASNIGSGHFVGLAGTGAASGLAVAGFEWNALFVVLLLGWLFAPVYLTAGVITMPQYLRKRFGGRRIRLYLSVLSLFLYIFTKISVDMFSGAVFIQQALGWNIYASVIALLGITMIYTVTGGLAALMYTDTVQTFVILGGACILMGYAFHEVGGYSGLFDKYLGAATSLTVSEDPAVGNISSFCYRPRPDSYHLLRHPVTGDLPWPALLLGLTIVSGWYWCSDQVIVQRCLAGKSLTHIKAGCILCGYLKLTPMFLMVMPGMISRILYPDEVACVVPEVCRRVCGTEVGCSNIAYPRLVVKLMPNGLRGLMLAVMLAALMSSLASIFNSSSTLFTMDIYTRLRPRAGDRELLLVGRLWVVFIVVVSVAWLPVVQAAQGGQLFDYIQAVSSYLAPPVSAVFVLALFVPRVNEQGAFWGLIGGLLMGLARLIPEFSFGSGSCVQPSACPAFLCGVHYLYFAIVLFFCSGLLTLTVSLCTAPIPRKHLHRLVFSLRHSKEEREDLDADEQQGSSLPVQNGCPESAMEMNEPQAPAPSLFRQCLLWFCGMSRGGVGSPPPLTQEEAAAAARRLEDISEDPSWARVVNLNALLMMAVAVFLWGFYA

[4] = Half life in human; type: ADME

Chain of Voltage-dependent calcium channel subunit alpha-2/delta-1 (Homo sapiens) (P54289 25-956 limits assumed): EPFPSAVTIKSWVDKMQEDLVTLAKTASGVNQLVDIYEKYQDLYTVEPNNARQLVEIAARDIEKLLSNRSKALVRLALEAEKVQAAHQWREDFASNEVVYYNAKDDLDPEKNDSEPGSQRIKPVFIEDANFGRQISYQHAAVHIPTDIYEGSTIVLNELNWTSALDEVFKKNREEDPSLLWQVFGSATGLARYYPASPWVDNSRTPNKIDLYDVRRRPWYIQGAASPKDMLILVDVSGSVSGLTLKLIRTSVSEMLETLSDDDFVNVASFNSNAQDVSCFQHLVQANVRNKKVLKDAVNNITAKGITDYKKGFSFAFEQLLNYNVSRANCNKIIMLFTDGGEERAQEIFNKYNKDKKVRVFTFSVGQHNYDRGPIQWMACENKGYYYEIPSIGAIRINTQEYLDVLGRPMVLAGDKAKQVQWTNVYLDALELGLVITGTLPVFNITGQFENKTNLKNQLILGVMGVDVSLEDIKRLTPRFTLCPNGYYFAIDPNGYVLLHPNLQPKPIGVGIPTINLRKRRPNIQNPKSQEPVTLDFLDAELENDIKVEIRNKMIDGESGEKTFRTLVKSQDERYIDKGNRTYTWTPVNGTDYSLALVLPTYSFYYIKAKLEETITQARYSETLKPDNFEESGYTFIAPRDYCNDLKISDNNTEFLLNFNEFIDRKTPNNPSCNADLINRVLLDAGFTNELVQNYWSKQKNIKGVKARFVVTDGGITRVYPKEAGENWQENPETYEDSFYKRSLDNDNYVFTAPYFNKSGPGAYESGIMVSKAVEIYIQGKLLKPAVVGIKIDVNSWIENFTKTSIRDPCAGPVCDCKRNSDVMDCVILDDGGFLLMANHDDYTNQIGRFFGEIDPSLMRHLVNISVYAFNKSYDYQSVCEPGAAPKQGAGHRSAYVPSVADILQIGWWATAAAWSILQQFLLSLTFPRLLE
Chain of Voltage-dependent calcium channel subunit alpha-2/delta-1 (Homo sapiens) (P54289 957-1103 limits assumed): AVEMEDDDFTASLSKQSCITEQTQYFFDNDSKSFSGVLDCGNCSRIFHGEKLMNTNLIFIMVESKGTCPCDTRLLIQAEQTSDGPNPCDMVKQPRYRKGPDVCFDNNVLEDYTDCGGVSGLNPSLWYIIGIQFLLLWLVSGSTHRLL
Chain of Voltage-dependent calcium channel subunit alpha-2/delta-2 (Homo sapiens) (Q9NY47 19-1001 limits assumed): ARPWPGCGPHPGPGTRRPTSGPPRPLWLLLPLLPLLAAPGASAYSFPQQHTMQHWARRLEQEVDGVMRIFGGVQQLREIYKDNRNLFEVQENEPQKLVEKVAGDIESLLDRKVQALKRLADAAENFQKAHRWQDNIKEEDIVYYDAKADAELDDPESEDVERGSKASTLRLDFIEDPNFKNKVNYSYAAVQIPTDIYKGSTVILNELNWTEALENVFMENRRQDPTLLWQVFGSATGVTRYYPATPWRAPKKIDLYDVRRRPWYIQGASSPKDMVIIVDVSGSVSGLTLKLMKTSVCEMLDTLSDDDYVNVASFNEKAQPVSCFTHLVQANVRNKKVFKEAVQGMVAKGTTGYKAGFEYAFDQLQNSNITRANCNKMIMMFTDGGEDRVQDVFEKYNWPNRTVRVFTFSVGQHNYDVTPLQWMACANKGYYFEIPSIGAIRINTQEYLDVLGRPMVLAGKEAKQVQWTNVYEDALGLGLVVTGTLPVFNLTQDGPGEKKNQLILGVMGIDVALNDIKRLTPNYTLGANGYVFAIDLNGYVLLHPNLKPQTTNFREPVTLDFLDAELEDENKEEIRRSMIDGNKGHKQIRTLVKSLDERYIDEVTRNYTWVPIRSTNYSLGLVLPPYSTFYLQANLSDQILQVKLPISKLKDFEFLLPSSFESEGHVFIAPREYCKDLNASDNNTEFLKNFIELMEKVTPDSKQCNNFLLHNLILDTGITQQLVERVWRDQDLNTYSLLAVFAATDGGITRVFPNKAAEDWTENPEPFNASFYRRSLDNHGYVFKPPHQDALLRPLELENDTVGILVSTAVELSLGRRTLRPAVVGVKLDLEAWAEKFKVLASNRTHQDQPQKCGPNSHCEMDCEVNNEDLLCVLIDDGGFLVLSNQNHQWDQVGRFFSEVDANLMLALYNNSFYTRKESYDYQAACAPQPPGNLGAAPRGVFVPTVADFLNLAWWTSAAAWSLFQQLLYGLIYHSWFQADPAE
Chain of Voltage-dependent calcium channel subunit alpha-2/delta-2 (Homo sapiens) (Q9NY47 1002-1150 limits assumed): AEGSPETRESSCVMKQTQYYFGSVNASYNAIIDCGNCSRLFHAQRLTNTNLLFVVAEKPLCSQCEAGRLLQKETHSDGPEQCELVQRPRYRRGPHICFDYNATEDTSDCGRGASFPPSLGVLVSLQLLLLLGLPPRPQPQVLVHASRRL

SMILES	T1/2 [1]	T1/2 [2]	Ki [3]	half-life [4]
CC(C)C[C@H](CN)CC(=O)O	1.5 h	1.5 h	–	–
CCC1=C[C@@H]2[C@H](C1)C[C@]2(CN)CC(=O)O	> 11 h	–	–	–
CCOC(=O)OC[C@H]1O[C@@H](Oc2nn(C(C)C)c(C)c2Cc2ccc(OC(C)C)cc2)[C@H](O)[C@@H](O)[C@@H]1O [REMOGLIFLOZIN ETABONATE]	–	–	12.4 nM	2 h
